Laboratory results as given in the supplement of paper PMC11061612.

Tests used:
Carboplatin = compound: C1CC(C1)(C(=O)[O-])C(=O)[O-].N.N.[Pt+2] [Carboplatin]; details: max 10 µM
Summary of the method: (§1)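 Cancer cell lines were seeded in 1536-well plates in 7.5 μl DMEM/F12 or RPMI with 10% FBS, held 24 hours at 37°C and 5% CO2, then dosed for 72 hours (final DMSO typically 0.2%). Viability was read by CellTiter-Glo 2.0 luminescence and scaled between blank-well and DMSO-well means. The single-agent IC50 comes from dose responses fitted to a two-parameter logistic curve with a non-linear mixed effects model.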

AZD5363 = compound: C1CN(CCC1(C(=O)N[C@@H](CCO)C2=CC=C(C=C2)Cl)N)C3=NC=NC4=C3C=CN4 [AZD5363]; details: max 10 µM
Summary of the method: as §1

AZD1775 = compound: C=CCn1c(=O)c2cnc(Nc3ccc(N4CCN(C)CC4)cc3)nc2n1-c1cccc(C(C)(C)O)n1 [AZD1775]; details: max 3 µM
Summary of the method: as §1

Trametinib = compound: CC(=O)Nc1cccc(-n2c(=O)n(C3CC3)c(=O)c3c(Nc4ccc(I)cc4F)n(C)c(=O)c(C)c32)c1 [Trametinib]; details: max 1 µM
Summary of the method: as §1

Paclitaxel = compound: CC(=O)O[C@H]1C(=O)[C@@]2(C)[C@H]([C@H](OC(=O)c3ccccc3)[C@]3(O)C[C@H](OC(=O)[C@H](O)[C@@H](NC(=O)c4ccccc4)c4ccccc4)C(C)=C1C3(C)C)[C@]1(OC(C)=O)CO[C@@H]1C[C@@H]2O [Paclitaxel]; details: max 3 µM
Summary of the method: as §1

Palbociclib = compound: CC(=O)c1c(C)c2cnc(Nc3ccc(N4CCNCC4)cn3)nc2n(C2CCCC2)c1=O [Palbociclib]; details: max 10 µM
Summary of the method: as §1

AZD1390 = compound: CC(C)n1c(=O)n(C)c2cnc3cc(F)c(-c4ccc(OCCCN5CCCCC5)nc4)cc3c21 [AZD1390]; details: max 0.3 µM
Summary of the method: as §1

Venetoclax = compound: CC1(C)CCC(CN2CCN(c3ccc(C(=O)NS(=O)(=O)c4ccc(NCC5CCOCC5)c([N+](=O)[O-])c4)c(Oc4cnc5[nH]ccc5c4)c3)CC2)=C(c2ccc(Cl)cc2)C1 [Venetoclax]; details: max 1 µM
Summary of the method: as §1

Dasatinib = compound: CC1=C(C(=CC=C1)Cl)NC(=O)C2=CN=C(S2)NC3=CC(=NC(=N3)C)N4CCN(CC4)CCO [Dasatinib]; details: max 2 µM
Summary of the method: as §1

SG3199 = compound: CC1=CN2[C@@H](C1)C=NC3=CC(=C(C=C3C2=O)OC)OCCCCCOC4=C(C=C5C(=C4)N=C[C@@H]6CC(=CN6C5=O)C)OC [SG3199]; details: max 0.001 µM
Summary of the method: as §1

AZD2811 = compound: CCN(CCO)CCCOc1ccc2c(Nc3cc(CC(=O)Nc4cccc(F)c4)[nH]n3)ncnc2c1 [AZD2811]; details: max 1 µM
Summary of the method: as §1

SN-38 = compound: CCc1c2c(nc3ccc(O)cc13)-c1cc3c(c(=O)n1C2)COC(=O)[C@]3(O)CC [SN-38]; details: max 0.3 µM
Summary of the method: as §1

AZD0156 = compound: CN(C)CCCOc1ccc(-c2ccc3ncc4c(c3c2)n(C2CCOCC2)c(=O)n4C)cn1 [AZD0156]; details: max 3 µM
Summary of the method: as §1

AZD4320 = compound: CN(CC[C@H](CSC1=CC=CC=C1)NC2=C(C=C(C=C2)S(=O)(=O)NC(=O)C3=CC=C(C=C3)N4CCC(CC4)[C@H](C5=CC=CC=C5C6=CC=C(C=C6)Cl)O)S(=O)(=O)C(F)(F)F)CCO [AZD4320]; details: max 1 µM
Summary of the method: as §1

Alisertib = compound: COc1cc(Nc2ncc3c(n2)-c2ccc(Cl)cc2C(c2c(F)cccc2OC)=NC3)ccc1C(=O)O [Alisertib]; details: max 10 µM
Summary of the method: as §1

Etoposide = compound: COc1cc([C@@H]2c3cc4c(cc3[C@@H](O[C@@H]3O[C@@H]5CO[C@@H](C)O[C@H]5[C@H](O)[C@H]3O)[C@H]3COC(=O)[C@H]23)OCO4)cc(OC)c1O [Etoposide]; details: max 10 µM
Summary of the method: as §1

Gefitinib = compound: COc1cc2ncnc(Nc3ccc(F)c(Cl)c3)c2cc1OCCCN1CCOCC1 [Gefitinib]; details: max 10 µM
Summary of the method: as §1

Prexasertib = compound: COc1cccc(OCCCN)c1-c1cc(Nc2cnc(C#N)cn2)n[nH]1 [Prexasertib]; details: max 1 µM
Summary of the method: as §1

Doxorubicin = compound: COc1cccc2c1C(=O)c1c(O)c3c(c(O)c1C2=O)C[C@@](O)(C(=O)CO)C[C@@H]3O[C@H]1C[C@H](N)[C@H](O)[C@H](C)O1 [Doxorubicin]; details: max 1 µM
Summary of the method: as §1

AZD5153 = compound: COc1nnc2ccc(N3CCC(c4ccc(OCCN5CCN(C)C(=O)[C@H]5C)cc4)CC3)nn12 [AZD5153]; details: max 1 µM
Summary of the method: as §1

Lapatinib = compound: CS(=O)(=O)CCNCc1ccc(-c2ccc3ncnc(Nc4ccc(OCc5cccc(F)c5)c(Cl)c4)c3c2)o1 [Lapatinib]; details: max 10 µM
Summary of the method: as §1

AZD8186 = compound: C[C@@H](Nc1cc(F)cc(F)c1)c1cc(C(=O)N(C)C)cc2c(=O)cc(N3CCOCC3)oc12 [AZD8186]
Summary of the method: as §1

Crizotinib = compound: C[C@@H](Oc1cc(-c2cnn(C3CCNCC3)c2)cnc1N)c1c(Cl)ccc(F)c1Cl [Crizotinib]; details: max 10 µM
Summary of the method: as §1

Savolitinib = compound: C[C@@H](c1ccc2nccn2c1)n1nnc2ncc(-c3cnn(C)c3)nc21 [Savolitinib]; details: max 1 µM
Summary of the method: as §1

AZD6738 = compound: C[C@@H]1COCCN1C2=NC(=NC(=C2)C3(CC3)[S@](=N)(=O)C)C4=C5C=CNC5=NC=C4 [AZD6738]; details: max 10 µM
Summary of the method: as §1

AZD5991 = compound: Cc1c2c(nn1C)CSCc1cc(n(C)n1)CSc1cc(c3ccccc3c1)OCCCc1c(C(=O)O)n(C)c3c-2c(Cl)ccc13 [AZD5991]; details: max 1 µM
Summary of the method: as §1

AZD7648 = compound: Cc1cc2ncnn2cc1Nc1ncc2c(n1)n(C1CCOCC1)c(=O)n2C [AZD7648]; details: max 10 µM
Summary of the method: as §1

Taselisib = compound: Cc1nc(-c2cn3c(n2)-c2ccc(-c4cnn(C(C)(C)C(N)=O)c4)cc2OCC3)n(C(C)C)n1 [Taselisib]; details: max 10 µM
Summary of the method: as §1

Selumetinib = compound: Cn1cnc2c(F)c(Nc3ccc(Br)cc3Cl)c(C(=O)NOCCO)cc21 [Selumetinib]; details: max 10 µM
Summary of the method: as §1

SRA737 = compound: N#Cc1cnc(Nc2cc(NC[C@H]3CNCCO3)c(C(F)(F)F)cn2)cn1 [SRA737]; details: max 10 µM
Summary of the method: as §1

MK-2206 = compound: NC1(c2ccc(-c3nc4ccn5c(=O)[nH]nc5c4cc3-c3ccccc3)cc2)CCC1 [MK-2206]; details: max 10 µM
Summary of the method: as §1

Gemcitabine = compound: Nc1ccn([C@@H]2O[C@H](CO)[C@@H](O)C2(F)F)c(=O)n1 [Gemcitabine]; details: max 0.3 µM
Summary of the method: as §1

[1] = compound: O=C(Nc1ccc2[nH]nc(-c3ccncc3)c2c1)[C@@H]1CCN(CC(=O)N2CCN(c3ccc(-c4ncccn4)cc3)CC2)C1; details: max 5 µM
Summary of the method: as §1

Olaparib = compound: O=C(c1cc(Cc2n[nH]c(=O)c3ccccc23)ccc1F)N1CCN(C(=O)C2CC2)CC1 [Olaparib]; details: max 10 µM
Summary of the method: as §1

5-Fluorouracil = compound: O=c1[nH]cc(F)c(=O)[nH]1 [5-Fluorouracil]; details: max 20 µM
Summary of the method: as §1

Capivasertib = compound: C1CN(CCC1(C(=O)N[C@@H](CCO)C2=CC=C(C=C2)Cl)N)C3=NC=NC4=C3C=CN4 [Capivasertib]; details: max 10 µM
Summary of the method: as §1

Cell Line	IC50, cell viability 72 h (Carboplatin)	IC50, cell viability 72 h (AZD5363)	IC50, cell viability 72 h (AZD1775)	IC50, cell viability 72 h (Trametinib)	IC50, cell viability 72 h (Paclitaxel)	IC50, cell viability 72 h (Palbociclib)	IC50, cell viability 72 h (AZD1390)	IC50, cell viability 72 h (Venetoclax)	IC50, cell viability 72 h (Dasatinib)	IC50, cell viability 72 h (SG3199)	IC50, cell viability 72 h (AZD2811)	IC50, cell viability 72 h (SN-38)	IC50, cell viability 72 h (AZD0156)	IC50, cell viability 72 h (AZD4320)	IC50, cell viability 72 h (Alisertib)	IC50, cell viability 72 h (Etoposide)	IC50, cell viability 72 h (Gefitinib)	IC50, cell viability 72 h (Prexasertib)	IC50, cell viability 72 h (Doxorubicin)	IC50, cell viability 72 h (AZD5153)	IC50, cell viability 72 h (Lapatinib)	IC50, cell viability 72 h (AZD8186; max 10 µM)	IC50, cell viability 72 h (Crizotinib)	IC50, cell viability 72 h (Savolitinib)	IC50, cell viability 72 h (AZD6738)	IC50, cell viability 72 h (AZD5991)	IC50, cell viability 72 h (AZD7648)	IC50, cell viability 72 h (Taselisib)	IC50, cell viability 72 h (Selumetinib)	IC50, cell viability 72 h (SRA737)	IC50, cell viability 72 h (MK-2206)	IC50, cell viability 72 h (Gemcitabine)	IC50, cell viability 72 h [1]	IC50, cell viability 72 h (Olaparib)	IC50, cell viability 72 h (5-Fluorouracil)	IC50, cell viability 72 h (Capivasertib)	IC50, cell viability 72 h (AZD8186; max 3 µM)
GCIY (Gastric Carcinoma)	> 10 µM	> 10 µM	> 3000 nM	271 nM	549 nM	> 10 µM	> 300 nM	> 1000 nM	589 nM	> 1 nM	> 1000 nM	90 nM	> 3000 nM	> 1000 nM	1.21 µM	> 10 µM	> 10 µM	41.9 nM	> 1000 nM	> 1000 nM	> 10 µM	> 10000 nM	> 10 µM	> 1000 nM	3.03 µM	> 1000 nM	> 10 µM	0.895 µM	> 10 µM	> 10 µM	> 10 µM	> 300 nM	> 5 µM	> 10 µM	> 20 µM	–	–
OCI-M1 (Acute Myeloid Leukemia)	–	–	426 nM	35.4 nM	–	9.53 µM	> 300 nM	> 1000 nM	> 2000 nM	> 1 nM	> 1000 nM	13.4 nM	> 3000 nM	131 nM	0.516 µM	–	> 10 µM	18.6 nM	443 nM	16.2 nM	> 10 µM	–	1.4 µM	> 1000 nM	0.657 µM	> 1000 nM	> 10 µM	> 10 µM	1.81 µM	–	> 10 µM	–	–	> 10 µM	–	> 10 µM	> 3000 nM
JJN-3 (Plasma Cell Myeloma)	–	–	654 nM	> 1000 nM	–	> 10 µM	> 300 nM	> 1000 nM	> 2000 nM	> 1 nM	> 1000 nM	163 nM	> 3000 nM	866 nM	> 10 µM	–	> 10 µM	27.4 nM	994 nM	47.6 nM	> 10 µM	–	> 10 µM	> 1000 nM	5.74 µM	49.5 nM	> 10 µM	> 10 µM	> 10 µM	–	> 10 µM	–	–	> 10 µM	–	> 10 µM	> 3000 nM
NCI-H835 (Other Solid Carcinomas)	> 10 µM	> 10 µM	1100 nM	> 1000 nM	2770 nM	> 10 µM	> 300 nM	> 1000 nM	> 2000 nM	> 1 nM	> 1000 nM	> 300 nM	> 3000 nM	218 nM	–	> 10 µM	> 10 µM	> 1000 nM	> 1000 nM	> 1000 nM	> 10 µM	> 10000 nM	9.99 µM	> 1000 nM	> 10 µM	> 1000 nM	> 10 µM	5.25 µM	> 10 µM	> 10 µM	> 10 µM	> 300 nM	> 5 µM	> 10 µM	> 20 µM	–	–
SCC90 (Head and Neck Carcinoma)	–	–	> 3000 nM	7.16 nM	–	> 10 µM	> 300 nM	> 1000 nM	> 2000 nM	> 1 nM	> 1000 nM	> 300 nM	> 3000 nM	> 1000 nM	7.38 µM	–	0.97 µM	122 nM	> 1000 nM	> 1000 nM	0.882 µM	–	> 10 µM	> 1000 nM	> 10 µM	266 nM	> 10 µM	1.9 µM	0.497 µM	–	8.22 µM	–	–	> 10 µM	–	2.3 µM	> 3000 nM
HT-3 (Cervical Carcinoma)	–	–	2340 nM	> 1000 nM	–	> 10 µM	> 300 nM	> 1000 nM	> 2000 nM	> 1 nM	> 1000 nM	8.56 nM	> 3000 nM	> 1000 nM	> 10 µM	–	> 10 µM	> 1000 nM	732 nM	> 1000 nM	> 10 µM	–	> 10 µM	> 1000 nM	> 10 µM	> 1000 nM	> 10 µM	> 10 µM	> 10 µM	–	–	–	–	> 10 µM	–	> 10 µM	> 3000 nM
